Source: a melting point compilation (Tetko et al.; mined from patent text by program, amines drawn as free bases though some values may be those of a salt)

Row | SMILES | melting point [°C]
1 | O=c1ccc(S(=O)(=O)c2cc3cc(Cl)cc(Cl)c3o2)n[nH]1 | 240 to 245
2 | CC(=O)SCCC1(C)C(=O)N2CCCC(C(=O)OC(C)(C)C)N2C1=O (centres undefined) | 67 to 70
3 | Nc1ncc(-c2ccc(F)cc2)cc1[N+](=O)[O-] | 232
4 | COCCOc1ccc([N+](=O)[O-])cc1[N+](=O)[O-] | 31 to 33
5 | O=C(O)c1nc2cc(O)c(O)cc2nc1C(=O)O | > 300
6 | CCOC(=O)c1c(CCBr)nc2cc(OC)c(OC)cc2c1-c1ccc(OC)c(OC)c1 | 132 to 133
7 | Clc1ncnc(Cl)c1C1OCCO1 | 108 to 110
8 | COCOc1ccc(O)cc1OC | 70 to 72
9 | O=C(Nc1c[nH]nc1C(=O)NCCCO)c1ccccn1 | 209 to 211
10 | COC(=O)c1cc(OC)c2c(c1)OCO2 | 91
11 | CCOC(=O)c1c(C)nn(C)c1CCl | 81 to 83
12 | CCCN(CCOc1c(Cl)cccc1Cl)C1CCc2c(ccc(OCc3ccc(OC(=O)C(C)C)cc3)c2OCc2ccc(OC(=O)C(C)C)cc2)C1 (centres undefined) | 84 to 86
13 | CC(C)(C)C1=CC(=CC#Cc2ccc(C(=O)O)c(O)c2)C=C(C(C)(C)C)C1=O | 203
14 | COc1cc2c(cc1[N+](=O)[O-])N(CC(=O)N(C)C)C(=O)CN(CC(=O)N(C)C)C2 | 98
15 | Brc1ccc(C2(c3ccc(Br)cc3)OCCO2)cc1 | 103 to 104
16 | CCCCN1CCN(CCNC(=O)c2nn(C(C)C)c3ccccc23)CC1 | 82 to 84
17 | CCCCCc1ccc(NS(=O)(=O)c2ccc(N3CCNC3=O)cc2)cc1 | 207 to 209
18 | COc1cc2nc(Cl)n3cnnc3c2cc1OC | 269 to 271
19 | Cc1cc(I)ccc1Nc1c(-c2nnc(N)o2)cc2c(ncn2C)c1F | 258 to 260
20 | CC(c1ccc2c(c1)CCC(=O)N2)n1ccnc1 (centres undefined) | 185
21 | COc1nc2cc(Cl)ccc2n2cnnc12 | 250 to 252
22 | OC(CCl)CN(CC(O)CCl)c1ccccc1 (centres undefined) | 60
23 | Cc1cc2c(cc1C)C(=O)c1c(N)cccc1C2=O | 222
24 | CC(=O)N1CCC(CCCC(=O)c2ccc3c(c2)CCNCC3)CC1 | 90 to 91
25 | O=[N+]([O-])c1cc2nc(O)c(O)nc2c2nonc12 | > 300
26 | CCOCc1nc(C(=O)OCC)c(C(=O)OCC)[nH]1 | 60 to 61
27 | Fc1cccc(F)c1-c1cncnc1 | 67 to 69

Row | SMILES | melting point [°C]
28 | O=C(O)Cc1ccc(-n2cc(Cl)cn2)cc1 | 176 to 178
29 | COC(=O)Cn1cnc2c(C)c[nH]c2c1=O | 233 to 235
30 | O=C(C[C@H]1CCCO1)N[C@H]1CC[C@H](CCN2CCC(c3cccc4c3CCO4)CC2)CC1 | 192
31 | CCCCOc1c(CNC(=O)OC(C)(C)C)n(CC(C)C)c(=O)c2ccc(/C=C/C(=O)O)cc12 | 207 to 209
32 | Cc1cc(Cl)ccc1N1CN(C)CN(C)C1=S | 103 to 105
33 | CC(=O)OC1CSC(Oc2ccc(-c3cccnc3)nc2)C(OC(C)=O)C1OC(C)=O (centres undefined) | 196
34 | CCC(CCCNC(=O)Nc1cccnc1)NC(=O)Nc1cccnc1 (centres undefined) | 218 to 219
35 | N#Cc1ccc2c(c1)NC(=O)C2c1ncnc2c1cnn2C1CCCCC1 (centres undefined) | > 300
36 | Cc1ncsc1C(O)c1cccc(O)c1 (centres undefined) | 181 to 184
37 | O=CCN1C(=O)c2ccccc2C1=O | 114
38 | CNC(=S)NCc1cc(-c2ccc(Cl)cc2)no1 | 135
39 | CCCN1CCNC1=C[N+](=O)[O-] | 147 to 148
40 | CS(=O)(=O)c1ccc(C(CC2CCCC2)C(=O)Nc2nccs2)cc1Br (centres undefined) | 106 to 107
41 | c1cc(N2CCOCC2)c2c(c1)-n1cnc(-c3nc(C4CC4)no3)c1N1CCN=C21 | 217 to 220
42 | NC(=S)c1cccc2nnsc12 | 129 to 131
43 | CCCCc1nc(-c2nc(C)nc(C)n2)ccc1C | 73.5
44 | Cn1ncc(N2CCCCC2)c(C=NO)c1=O | 170 to 171
45 | Fc1cccc(CC2(Cc3ccncc3)c3cccnc3-c3ncccc32)n1 | 180 to 182
46 | Cc1cc2c(cc1-c1cc(C=CC(=O)O)n(C)c1)C(C)(C)CCC2(C)C | 185 to 186
47 | O=C(C=Cc1ccc2c(c1)OCO2)C1C(=O)CCC1=O | 181 to 182
48 | CCN1C(=O)Cc2cc3c(cc21)C(=O)CO3 | 181 to 184
49 | Cc1cccc(-c2[nH]c(C(C)C)nc2-c2cccc(-c3ccc(S(=O)(=O)N(C)C)cc3)c2)n1 | 93 to 96
50 | CCCc1c(C(=O)C2CCCC2)c2ccc(C(N)=O)cc2n1Cc1cc2c(cc1Cl)OCO2 | 236 to 237
51 | Nc1ccc(C(=O)c2ncco2)c(Cl)c1 | 92 to 94
52 | O=S(=O)(c1ccc(Cl)cc1)c1ccc(NCc2nnn[nH]2)cc1 | 102 to 105
53 | COc1cncc(-c2cc(=S)ss2)n1 | 149
54 | Nc1ccn(-c2cccc(Cl)c2)n1 | 106 to 107

Second part, the compound after the results:

Row | melting point [°C] | SMILES
55 | 55 to 57 | O=C(OCC1(c2ccccc2)CC1)c1cccc2nnsc12
56 | 173 to 174 | O=C(O)CCCNC(=O)c1ccccc1NC(=O)c1ccccc1O
57 | 100 | CCOC(=O)CCC(=O)OCC(F)(F)Cn1nc(C)c(-c2ccc3c(c2)NC(=O)CO3)c1-c1ccc(F)cc1
58 | 307 to 312 | Cc1c(Cc2ccccc2)c(=O)[nH]c2cc(O)cc(O)c12
59 | 195 to 196 | COC(=O)c1ccc(-c2nn(Cc3ccccc3)c3ccc(N)cc23)o1
60 | 202 to 204 | O=c1c2c(CCCc3ccccc3)n[nH]c2c2cccnc2n1-c1ccccc1
61 | 216 to 217 | CC(C)c1ccc2oc(=O)c(NC(=O)Nc3ccc(F)cc3F)c(-c3ccc(F)cc3)c2c1
62 | 73 | CNC(=O)[C@@H]1C[C@@H](OC)CN1S(=O)(=O)c1ccc(Cl)c(COc2cccc3c2NC(C)(C)C=C3n2cncn2)c1Cl
63 | 174 to 176 | CS(=O)(=O)c1ccc(-c2ccc(I)n2-c2ccc(F)cc2)cc1
64 | 162 to 164 | COCc1cc(-c2nc(-c3cnc(N)c(C)c3)no2)ccc1-c1ccccc1F
65 | 103 to 105 | COc1cc(S(C)(=O)=O)c(C)cc1OCC(=O)NCC(O)COc1ccccc1 (centres undefined)
66 | 122 to 125 | O=C(O)CC/C=C/c1nn(-c2ccccc2)c2c1CCC2
67 | 100 to 102 | O=C(CCCN1CCC(c2ccccc2Cc2ccccc2)CC1)c1ccc(F)cc1
68 | 167 | O=C(CSc1nc2ccccc2[nH]1)c1ccccc1
69 | 249 to 250 | Cc1cc(-c2ccc(Cl)cc2)cn2cc(C(=O)NC(Cc3ccc(OCc4ccccc4)cc3)C(=O)O)nc12 (centres undefined)
70 | 207 | CC(=O)Nc1ccc(C(=O)N(C)Cc2cccc(-c3ccc(CC4SC(=O)NC4=O)cc3)c2)cc1 (centres undefined)
71 | 160 | Cc1cc(-n2ccnc2)c2cccc(OCc3c(Cl)ccc(S(=O)(=O)N4CC[C@H]4C(=O)O)c3Cl)c2n1
72 | 123 | Cc1cccc(NC(=O)NCC(=O)N2C(C(=O)OC(C)(C)C)CCCC2c2ccccc2)c1 (centres undefined)
73 | 130 to 131 | O=Cc1ccc2ccn(C3CCN(CCc4ccccc4F)CC3)c2c1
74 | 165 to 168 | C[C@@H](NC(=O)[C@@H](NC(=O)[C@H](C/C=C/c1ccc(-c2ccccc2)c(F)c1)CC(=O)OC(C)(C)C)C(C)(C)C)c1ccccc1
75 | 155 to 158 | COCOc1cc(F)ccc1-c1cc(-c2cccc(C(=O)OC)c2)c(C#N)c(N)n1
76 | 119 to 123 | Cc1cccc(-c2[nH]c(C(C)C)nc2-c2ccc(F)c(-c3ccc4c(c3)CCS4(=O)=O)c2)n1
77 | 204 to 207 | Cc1cc2c(-c3ccccc3)c(CCO)n(C)c(=O)c2cc1C

Row | melting point [°C] | SMILES
78 | 202 to 204 | Nc1nonc1-c1nc2ccccc2n1CC(=O)c1ccccc1
79 | 100 to 104 | COc1ccc(Cl)cc1[C@]1(F)C(=O)N(C(=O)N[C@H](C(=O)O)C(C)C)c2cc(C(F)(F)F)ccc21
80 | 123 to 125 | O=C(NCc1ccccn1)c1ccc2cnccc2n1
81 | 40 to 45 | O=C(Cl)N1CC(Oc2cc(C(F)(F)F)ccc2Cl)C1
82 | 173 to 181 | COc1ccc2ccc(NC(=O)c3c[nH]c4c3C(=O)CCC4)nc2n1
83 | 160 to 161 | COC(=O)c1ccc(-c2nc(-c3ccc(OC(F)F)cc3)co2)cc1
84 | 165 to 166 | COC(=O)C1=C(C)Nc2ccccc2SC1c1ccccc1C(F)(F)F (centres undefined)
85 | 243 to 245 | O=C(CC(F)(F)F)NC[C@H]1CN(c2ccc3c(c2)CCCc2cn[nH]c2-3)C(=O)O1
86 | 259 to 261 | CC1(C)Oc2ccc(S(=O)(=O)C(F)(F)F)cc2[C@@H](N2Cc3c(F)cccc3C2=O)[C@@H]1O (relative stereo)
87 | 152 to 153 | FC(F)(F)c1cc(CO[C@@H]2CCCN(Cc3nc4ccccc4[nH]3)[C@@H]2c2ccccc2)cc(C(F)(F)F)c1 (relative stereo)
88 | 213 | Cc1ccc(S(=O)(=O)c2c(N3CCN(C(=O)c4cccs4)CC3)c3ccccc3n(C)c2=O)cc1
89 | 140 to 142 | COc1cc(C)c(C(C)O)cc1NC(=O)N1CCN(c2cc(C)cc(C)c2)CC1 (centres undefined)
90 | 109 to 110 | CCOC(=O)CCc1cn(Cc2ccc(OC)c(OCc3nc(-c4ccccc4)oc3C)c2)nc1OCC
91 | 55 to 56 | O=C1C[C@@H](C(=O)OCc2ccccc2)N(C(=O)OCc2ccccc2)C1
92 | 162 to 164 | COc1cccc2[nH]c(C(=O)OCc3ccccc3)cc12
93 | 170 | O=CN1CCN(C(=O)COc2cc(-c3ccccc3)nc3ccccc23)CC1
94 | 160 to 165 | CC1=C(C(=O)NC(C)(C)C)C(c2ccccc2Br)C(C(=O)OC(C)C)=C(COCCn2c(C)nc3cnccc32)N1 (centres undefined)
95 | 201 | C=CCNc1nc(NC(=O)Nc2ccccc2OC)nc(N(CCC(=O)O)Cc2ccc(Cl)c(Cl)c2)n1
96 | 236 to 238 | c1ccc(-c2n[nH]c3c2sc2ccccc23)cc1
97 | 144 to 145 | CC1(C)OC(=O)C(Oc2ccc(Cl)c(Cl)c2)=C1c1ccc(S(C)(=O)=O)cc1
98 | 124 to 126 | CCC1C(=O)Nc2ccc3ccccc3c21 (centres undefined)
99 | 153 to 155 | NC(=O)c1cccc2c1CC(NCCCc1c[nH]c3ccc(F)cc13)CO2 (centres undefined)
